Where a SMILES comes first, the peptide text is derived from it.
Test system: HEK293T cells
Assay: Cytotoxicity assay (CCK-8)
Format: cell-based
Conditions: 24 h; for Cytotoxicity at 50 μM (in words): CCK-8, n = 5, compared with 0 μM; for Cytotoxicity within the concentration range detected (in words): peptide 1-50 μM, CCK-8, OD450, n = 5
Description: HEK293T cells were cultured in DMEM (10% FBS, 1% penicillin–streptomycin solution) in a 37 °C, 5% CO2 cell culture incubator until reaching the logarithmic growth phasein. As previously described, cells were seeded into a 96-well plate at 100 μL per well and pre-incubated for 48 h. After removing the medium, 10 μL of antimicrobial peptide solutions (1, 2, 5, 10, 20, and 50 μM) were added to each well with five replicate wells per concentration. The HEK293T cells cultured with DMEM (0 μM peptide) constituted the untreated group and plates with no cells were as blank group. Plates were then cultured for 24 h. Subsequently, 10 μL of CCK-8 solution was added to each well and incubated for 3 h under the same conditions using the Cell Counting Kit-8 (CCK-8, K1018, APE×BIO, Technology LLC, Houston, TX, USA). Absorbance at 450 nm was measured using a microplate reader. Cell viability was calculated using the following formula: Cell viability (%) = [Treated group OD (450) − Blank group OD (450)]/[Untreated group OD (450) − Blank group OD (450)] × 100%.

Compound | Cytotoxicity at 50 μM (in words) | Cytotoxicity within the concentration range detected (in words) | further results
CC[C@H](C)[C@H](NC(=O)[C@H](CCCCN)NC(=O)[C@H](Cc1ccc(O)cc1)NC(=O)[C@H](CCCCN)NC(=O)[C@H](CCCCN)NC(=O)[C@H](Cc1ccccc1)NC(=O)[C@H](CCCNC(=N)N)NC(=O)[C@H](CC(N)=O)NC(=O)[C@H](CCSC)NC(=O)[C@@H](NC(=O)[C@H](CC(C)C)NC(=O)[C@H](Cc1ccc(O)cc1)NC(=O)[C@@H](NC(=O)[C@H](C)NC(=O)[C@H](CCCNC(=N)N)NC(=O)[C@H](CCSC)NC(=O)[C@H](CCCCN)NC(=O)[C@H](CCCCN)NC(=O)[C@H](C)NC(=O)[C@H](CCCNC(=N)N)NC(=O)[C@H](CCCNC(=N)N)NC(=O)[C@@H](N)CCCNC(=N)N)[C@@H](C)CC)[C@@H](C)CC)C(=O)O [P4] (H-RRRAKKMRAIYLIMNRFKKYKI-OH; N-terminus and C-terminus assumed) | significant cell death |  | 
CC(C)C[C@H](NC(=O)[C@@H](N)CC(C)C)C(=O)N[C@@H](CCCNC(=N)N)C(=O)N[C@@H](CCCNC(=N)N)C(=O)N[C@@H](CCCCN)C(=O)N[C@@H](Cc1ccccc1)C(=O)N[C@@H](Cc1ccccc1)C(=O)N[C@@H](Cc1ccccc1)C(=O)O [S2] (H-LLRRKFFF-OH; N-terminus and C-terminus assumed) |  |  | Cytotoxicity at 10 μM (in words) (10 μM, CCK-8, n = 5): significant cytotoxic effects; Cell viability (at 10, 20 and 50 μM, CCK-8, n = 5): ≤ 75%
FAKLLLRLPALR [P1, peptide … derived from Crassostrea gigas mucous proteins, selected by machine learning] |  | no cytotoxicity | 
KVWQRVKVKML [P3, peptide … derived from Crassostrea gigas mucous proteins, selected by machine learning] |  | no cytotoxicity | 
LLFRRRLL [S1] | significant cell death |  | 
WKQIKFYVYNRILKKRK [P2, peptide … derived from Crassostrea gigas mucous proteins, selected by machine learning] | significant cell death |  | 
